Measured values reported in the NIST ThermoML archive (doi:10.1021/acs.jced.9b00752).

Experiment: mn = molality of the nth substance listed, in mol/kg
Conditions: 100 kPa, Liquid, Vibrating tube method

N[C@@H](Cc1c[nH]cn1)C(=O)O [L-histidine] + O
Conditions | mass density [kg/m3]
273.65 K, m1 = 0.0078 | 1000.36
273.65 K, m1 = 0.0176 | 1000.94
273.65 K, m1 = 0.0269 | 1001.55
273.65 K, m1 = 0.048 | 1002.8
273.65 K, m1 = 0.0636 | 1003.83
273.65 K, m1 = 0.0856 | 1005.09
273.65 K, m1 = 0.0982 | 1005.86
273.65 K, m1 = 0.115 | 1006.76
273.65 K, m1 = 0.1268 | 1007.55
273.65 K, m1 = 0.138 | 1008.24
273.65 K, m1 = 0.1586 | 1009.57
274.15 K, m1 = 0.0078 | 1000.39
274.15 K, m1 = 0.0176 | 1000.96
274.15 K, m1 = 0.0269 | 1001.57
274.15 K, m1 = 0.048 | 1002.82
274.15 K, m1 = 0.0636 | 1003.85
274.15 K, m1 = 0.0856 | 1005.11
274.15 K, m1 = 0.0982 | 1005.87
274.15 K, m1 = 0.115 | 1006.77
274.15 K, m1 = 0.1268 | 1007.57
274.15 K, m1 = 0.138 | 1008.25
274.15 K, m1 = 0.1586 | 1009.58
274.65 K, m1 = 0.0078 | 1000.41
274.65 K, m1 = 0.0176 | 1000.99
274.65 K, m1 = 0.0269 | 1001.59
274.65 K, m1 = 0.048 | 1002.83
274.65 K, m1 = 0.0636 | 1003.87
274.65 K, m1 = 0.0856 | 1005.12
274.65 K, m1 = 0.0982 | 1005.88
274.65 K, m1 = 0.115 | 1006.77
274.65 K, m1 = 0.1268 | 1007.57
274.65 K, m1 = 0.138 | 1008.25
274.65 K, m1 = 0.1586 | 1009.58
275.15 K, m1 = 0.0078 | 1000.43
275.15 K, m1 = 0.0176 | 1001
275.15 K, m1 = 0.0269 | 1001.61
275.15 K, m1 = 0.048 | 1002.85
275.15 K, m1 = 0.0636 | 1003.88
275.15 K, m1 = 0.0856 | 1005.12
275.15 K, m1 = 0.0982 | 1005.89
275.15 K, m1 = 0.115 | 1006.78
275.15 K, m1 = 0.1268 | 1007.57
275.15 K, m1 = 0.138 | 1008.25
275.15 K, m1 = 0.1586 | 1009.58
275.65 K, m1 = 0.0078 | 1000.44
275.65 K, m1 = 0.0176 | 1001.01
275.65 K, m1 = 0.0269 | 1001.62
275.65 K, m1 = 0.048 | 1002.86
275.65 K, m1 = 0.0636 | 1003.88
275.65 K, m1 = 0.0856 | 1005.13
275.65 K, m1 = 0.0982 | 1005.89
275.65 K, m1 = 0.115 | 1006.78
275.65 K, m1 = 0.1268 | 1007.57
275.65 K, m1 = 0.138 | 1008.25
275.65 K, m1 = 0.1586 | 1009.58
276.15 K, m1 = 0.0078 | 1000.45
276.15 K, m1 = 0.0176 | 1001.02
276.15 K, m1 = 0.0269 | 1001.62
276.15 K, m1 = 0.048 | 1002.86
276.15 K, m1 = 0.0636 | 1003.88
276.15 K, m1 = 0.0856 | 1005.13
276.15 K, m1 = 0.0982 | 1005.89
276.15 K, m1 = 0.115 | 1006.78
276.15 K, m1 = 0.1268 | 1007.57
276.15 K, m1 = 0.138 | 1008.25
276.15 K, m1 = 0.1586 | 1009.57
276.65 K, m1 = 0.0078 | 1000.46
276.65 K, m1 = 0.0176 | 1001.02
276.65 K, m1 = 0.0269 | 1001.62
276.65 K, m1 = 0.048 | 1002.86
276.65 K, m1 = 0.0636 | 1003.88
276.65 K, m1 = 0.0856 | 1005.12
276.65 K, m1 = 0.0982 | 1005.88
276.65 K, m1 = 0.115 | 1006.77
276.65 K, m1 = 0.1268 | 1007.56
276.65 K, m1 = 0.138 | 1008.23
276.65 K, m1 = 0.1586 | 1009.55
277.15 K, m1 = 0.0078 | 1000.45
277.15 K, m1 = 0.0176 | 1001.02
277.15 K, m1 = 0.0269 | 1001.62
277.15 K, m1 = 0.048 | 1002.85
277.15 K, m1 = 0.0636 | 1003.88
277.15 K, m1 = 0.0856 | 1005.11
277.15 K, m1 = 0.0982 | 1005.87
277.15 K, m1 = 0.115 | 1006.76
277.15 K, m1 = 0.1268 | 1007.54
277.15 K, m1 = 0.138 | 1008.22
277.15 K, m1 = 0.1586 | 1009.54
277.65 K, m1 = 0.0078 | 1000.45
277.65 K, m1 = 0.0176 | 1001.02
277.65 K, m1 = 0.0269 | 1001.62
277.65 K, m1 = 0.048 | 1002.85
277.65 K, m1 = 0.0636 | 1003.87
277.65 K, m1 = 0.0856 | 1005.1
277.65 K, m1 = 0.0982 | 1005.86
277.65 K, m1 = 0.115 | 1006.75
277.65 K, m1 = 0.1268 | 1007.53
277.65 K, m1 = 0.138 | 1008.2
277.65 K, m1 = 0.1586 | 1009.52
278.15 K, m1 = 0.0078 | 1000.44
278.15 K, m1 = 0.0176 | 1001.01
278.15 K, m1 = 0.0269 | 1001.61
278.15 K, m1 = 0.048 | 1002.84
278.15 K, m1 = 0.0636 | 1003.85
278.15 K, m1 = 0.0856 | 1005.09
278.15 K, m1 = 0.0982 | 1005.85
278.15 K, m1 = 0.115 | 1006.73
278.15 K, m1 = 0.1268 | 1007.51
278.15 K, m1 = 0.138 | 1008.18
278.15 K, m1 = 0.1586 | 1009.5
278.65 K, m1 = 0.0078 | 1000.43
278.65 K, m1 = 0.0176 | 1001
278.65 K, m1 = 0.0269 | 1001.6
278.65 K, m1 = 0.048 | 1002.82
278.65 K, m1 = 0.0636 | 1003.84
278.65 K, m1 = 0.0856 | 1005.07
278.65 K, m1 = 0.0982 | 1005.82
278.65 K, m1 = 0.115 | 1006.7
278.65 K, m1 = 0.1268 | 1007.49
278.65 K, m1 = 0.138 | 1008.16
278.65 K, m1 = 0.1586 | 1009.47
279.15 K, m1 = 0.0078 | 1000.42
279.15 K, m1 = 0.0176 | 1000.98
279.15 K, m1 = 0.0269 | 1001.58
279.15 K, m1 = 0.048 | 1002.8
279.15 K, m1 = 0.0636 | 1003.82
279.15 K, m1 = 0.0856 | 1005.05
279.15 K, m1 = 0.0982 | 1005.8
279.15 K, m1 = 0.115 | 1006.68
279.15 K, m1 = 0.1268 | 1007.46
279.15 K, m1 = 0.138 | 1008.13
279.15 K, m1 = 0.1586 | 1009.44
279.65 K, m1 = 0.0078 | 1000.4
279.65 K, m1 = 0.0176 | 1000.97
279.65 K, m1 = 0.0269 | 1001.56
279.65 K, m1 = 0.048 | 1002.78
279.65 K, m1 = 0.0636 | 1003.79
279.65 K, m1 = 0.0856 | 1005.02
279.65 K, m1 = 0.0982 | 1005.77
279.65 K, m1 = 0.115 | 1006.65
279.65 K, m1 = 0.1268 | 1007.43
279.65 K, m1 = 0.138 | 1008.1
279.65 K, m1 = 0.1586 | 1009.41
280.15 K, m1 = 0.0078 | 1000.38
280.15 K, m1 = 0.0176 | 1000.94
280.15 K, m1 = 0.0269 | 1001.53
280.15 K, m1 = 0.048 | 1002.75
280.15 K, m1 = 0.0636 | 1003.76
280.15 K, m1 = 0.0856 | 1004.99
280.15 K, m1 = 0.0982 | 1005.74
280.15 K, m1 = 0.115 | 1006.62
280.15 K, m1 = 0.1268 | 1007.39
280.15 K, m1 = 0.138 | 1008.06
280.15 K, m1 = 0.1586 | 1009.37
280.65 K, m1 = 0.0078 | 1000.36
280.65 K, m1 = 0.0176 | 1000.92
280.65 K, m1 = 0.0269 | 1001.51
280.65 K, m1 = 0.048 | 1002.73
280.65 K, m1 = 0.0636 | 1003.73
280.65 K, m1 = 0.0856 | 1004.96
280.65 K, m1 = 0.0982 | 1005.71
280.65 K, m1 = 0.115 | 1006.58
280.65 K, m1 = 0.1268 | 1007.36
280.65 K, m1 = 0.138 | 1008.03
280.65 K, m1 = 0.1586 | 1009.33
281.15 K, m1 = 0.0078 | 1000.33
281.15 K, m1 = 0.0176 | 1000.89
281.15 K, m1 = 0.0269 | 1001.48
281.15 K, m1 = 0.048 | 1002.69
281.15 K, m1 = 0.0636 | 1003.7
281.15 K, m1 = 0.0856 | 1004.92
281.15 K, m1 = 0.0982 | 1005.67
281.15 K, m1 = 0.115 | 1006.54
281.15 K, m1 = 0.1268 | 1007.32
281.15 K, m1 = 0.138 | 1007.99
281.15 K, m1 = 0.1586 | 1009.28
281.65 K, m1 = 0.0078 | 1000.29
281.65 K, m1 = 0.0176 | 1000.85
281.65 K, m1 = 0.0269 | 1001.44
281.65 K, m1 = 0.048 | 1002.65
281.65 K, m1 = 0.0636 | 1003.66
281.65 K, m1 = 0.0856 | 1004.88
281.65 K, m1 = 0.0982 | 1005.63
281.65 K, m1 = 0.115 | 1006.5
281.65 K, m1 = 0.1268 | 1007.27
281.65 K, m1 = 0.138 | 1007.94
281.65 K, m1 = 0.1586 | 1009.24
282.15 K, m1 = 0.0078 | 1000.26
282.15 K, m1 = 0.0176 | 1000.82
282.15 K, m1 = 0.0269 | 1001.41
282.15 K, m1 = 0.048 | 1002.62
282.15 K, m1 = 0.0636 | 1003.62
282.15 K, m1 = 0.0856 | 1004.84
282.15 K, m1 = 0.0982 | 1005.59
282.15 K, m1 = 0.115 | 1006.46
282.15 K, m1 = 0.1268 | 1007.23
282.15 K, m1 = 0.138 | 1007.89
282.15 K, m1 = 0.1586 | 1009.19
282.65 K, m1 = 0.0078 | 1000.22
282.65 K, m1 = 0.0176 | 1000.78
282.65 K, m1 = 0.0269 | 1001.36
282.65 K, m1 = 0.048 | 1002.57
282.65 K, m1 = 0.0636 | 1003.58
282.65 K, m1 = 0.0856 | 1004.79
282.65 K, m1 = 0.0982 | 1005.54
282.65 K, m1 = 0.115 | 1006.41
282.65 K, m1 = 0.1268 | 1007.18
282.65 K, m1 = 0.138 | 1007.84
282.65 K, m1 = 0.1586 | 1009.13
283.15 K, m1 = 0.0078 | 1000.18
283.15 K, m1 = 0.0176 | 1000.73
283.15 K, m1 = 0.0269 | 1001.32
283.15 K, m1 = 0.048 | 1002.53
283.15 K, m1 = 0.0636 | 1003.53
283.15 K, m1 = 0.0856 | 1004.74
283.15 K, m1 = 0.0982 | 1005.49
283.15 K, m1 = 0.115 | 1006.36
283.15 K, m1 = 0.1268 | 1007.13
283.15 K, m1 = 0.138 | 1007.79
283.15 K, m1 = 0.1586 | 1009.08
